Experimental data published in patent US4041168A, “Nitroimidazole derivative with antibacterial activity” (Gruppo Lepetit S.p.A., priority 1975, dated 1977).

Key:
[1] = in vivo activity against experimental infection in mice caused by Trichomonas vaginalis (ED50, Therapeutical Index); conditions: mouse, in vivo, po; ratio LD50/ED50, per os mice; read-out: Therapeutical Index (TI)
Method: (§1) This activity, expressed as an ED50 value, is moreover coupled with a very low toxicity, expressed as an LD50 value, which was determined substantially according to the method described by Lichtfield and Wilcoxon, Journ. Pharm. Exp. Ther., 96, 99, 1949. In representative experiments, the following results have been obtained:
(§2) which indicate that the compound of the invention is a very useful and promising anti-Trichomonas agent. This becomes even more evident if one considers its Therapeutical Index (TI). Said parameter, which is mathematically expressed by the following ratio LD50 /ED50 gives a reliable idea about the safety of a drug and, considering how it is calculated, it is clear that the higher the TI, the safer the drug is; a high value of the Therapeutical Index means in fact a low effective dose (ED50) in comparison with the lethal dose (LD50). […] As an example, the 5-isopropyl-1-methyl-2-nitroimidazole, described in U.S. Pat. No. 3,499,967 and therein mentioned as one of the most outstanding in vivo active 2-nitroimidazoles against Trichomonas vaginalis, has a Therapeutical Index of 102.
(§3) 1. In the present experiment there are compared the anti-Trichomonas in vivo activities and the Therapeutical Indexes (TI) of the compound of the invention (hereinafter referred to as compound A) and four 5-hydroxy alkyl-2-nitroimidazoles described or falling within prior art patents. In these four compounds the hydroxy group is bound to a primary or secondary carbon atom which not necessarily is linked to the imidazole nucleus.
(§4) 2. In the following set of experiments there are evaluated the variations of Therapeutical Index (positive or negative) which are observed when some 5-alkyl-2 -nitroimidazoles known from the prior art are compared with the corresponding 5-hydroxyalkyl-2-nitroimidazoles, including the new compound A. Obviously all of the compounds are tested for their in vivo activity against Trichomonas vaginalis. […] With reference to the hereinbelow reported table and the first four pair of compounds, the results clearly indicate that the variations of Therapeutical Index which are observed are slightly positive or even negative i.e., that the Therapeutical Index of the known 5-hydroxyalkyl-2-nitroimidazoles either is worse than or is substantially the same as that of the corresponding 5-alkyl compounds: this practically means that no appreciable therapeutical results have been obtained, and that, considering the last pair of substances i.e., compound K and compound A (the compound of the invention), an unrelevant or unfavorable variation of the Therapeutical Index would have to be expected as well. On the contrary, a dramatically favorable and unpredictable variation of this parameter is observed and, clearly, this effect is to be interpreted as a remarkable improvement of the therapeutical (anti-Trichomonas) properties:
(§5) 3. In the third experiment there are evaluated the effects on the Therapeutical Index of the substitution with two methyl groups of two hydrogen atoms of the methyl radical at the 5-position of compound F namely [drawing 17] in comparison with the effects on the same parameter caused by the substitution with two methyl groups of the two hydrogen atoms of the hydroxymethyl group of compound B, namely [drawing 18] The compounds are obviously tested for their anti-Trichomonas in vivo properties.

Trichomonas vaginalis = test: as above; conditions: for ED50: po; for ED50 / ED50 mg/kg per os mice: per os, mice, Trichomonas vaginalis infection; for in vivo anti-Trichomonas activity (in words): experimental infection in mice; for Therapeutical Index (comparison in words): mouse, in vivo
Method: as §1, §2, §3, §4, §5

[2] = toxicity (LD50) per os in mice, substantially according to Lichtfield and Wilcoxon; conditions: mouse, in vivo, po
Method: as §1, with “obtained: […]” for “obtained:”

[3] = usual in vitro antibacterial tests
From the text: Though the compound of the present invention is formally embraced by the foregoing general formula, it is to be noted that in the cited Belgian Patent only concrete examples of 5-hydroxy lower alkyl substituents are reported, wherein the hydroxy lower alkyl groups are 2-hydroxyethyl or 2-hydroxypropyl, i.e. only primary or secondary alcohols are disclosed.

Row | SMILES | selectivity ratio [1] | ED50 (Trichomonas vaginalis) | LD50 [2] | also measured
1 | CCc1cnc([N+](=O)[O-])n1C [reference compound] | 38 | 9.8 mg/kg | 372 mg/kg | 
2 | CC(C)c1cnc([N+](=O)[O-])n1C [K, 5-isopropyl-1-methyl-2-nitroimidazole, reference compound] | 102 |  |  | 
3 | Cn1c(C(C)(C)O)cnc1[N+](=O)[O-] [Compound A, 5-[(1-hydroxy-1-methyl)ethyl]-1-methyl-2-nitroimidazole] | 317 | 2.3 mg/kg | 730 mg/kg | in vivo anti-Trichomonas activity (in words) (Trichomonas vaginalis): far highest in vivo activity; in vivo anti-Trichomonas activity (in words) (Trichomonas vaginalis; listed as compound of the invention): outstanding in vivo activity; antibacterial properties in vitro (in words) [3]: very interesting antibacterial properties
4 | CC(C)c1cnc([N+](=O)[O-])n1C [drawing 13] |  | 2.6 mg/kg |  | LD50 mg/kg per os mice [2]: 265 mg/kg
5 | Cn1c(CO)cnc1[N+](=O)[O-] [drawing 3] | 24.8 | 14.1 mg/kg | 350 mg/kg | 
6 | COC(C)(C)c1cnc([N+](=O)[O-])n1C [Compound of formula V, 5-[(1-methoxy-1-methyl)ethyl]-1-methyl-2-nitroimidazole] | 160 | 2.18 mg/kg |  | in vivo anti-Trichomonas activity (in words) (Trichomonas vaginalis): valuable degree of in vivo anti-Trichomonas activity; Therapeutical Index (comparison in words) (Trichomonas vaginalis): not so high as that of the compound of formula I; LD50 mg/kg per os mice [2]: 350 mg/kg
7 | CC(O)Cc1cnc([N+](=O)[O-])n1C (stereo not drawn) [drawing 12] |  |  |  | ED50 mg/kg per os mice (Trichomonas vaginalis): 17 mg/kg; LD50 mg/kg per os mice [2]: 670 mg/kg
8 | CC(O)Cc1cnc([N+](=O)[O-])n1C (stereo not drawn) [drawing 5] | 39.4 | 17 mg/kg | 670 mg/kg | 
9 | Cn1c(CCO)cnc1[N+](=O)[O-] | 43 | 35 mg/kg | 1500 mg/kg | 
10 | Cn1c(CO)cnc1[N+](=O)[O-] [Compound B, 5-hydroxymethyl-1-methyl-2-nitroimidazole, reference compound] |  |  |  | Therapeutical Index (comparison in words) (Trichomonas vaginalis): much lower than that of compound A
11 | CC(CO)c1cnc([N+](=O)[O-])n1C (stereo not drawn) [drawing 14] |  |  |  | ED50 mg/kg per os mice (Trichomonas vaginalis): 20 mg/kg
12 | CC(CO)c1cnc([N+](=O)[O-])n1C (stereo not drawn) [drawing 6] | 38.8 | 20 mg/kg | 776 mg/kg | 
13 | Cc1cnc([N+](=O)[O-])n1C | 23.4 | 10.5 mg/kg | 246 mg/kg | 
14 | CCCc1cnc([N+](=O)[O-])n1C [reference compound] | 21.6 | 26 mg/kg | 560 mg/kg | 
